system: IgE antibody present in the serum of a shrimp-allergic patient; experiment: Epitope mapping (1): array of overlapping 15-amino-acid peptides, chemiluminescence; type: binding, human; settings: 15-amino-acid peptide array; serum of 37 patients; difference from N2nd value of 5 non-shrimp-allergic subjects at least 35,000
Experimental: Epitope mapping was carried out using a library of overlapping peptides (length: 15 amino acids) corresponding to the amino acid sequences identified as allergy components of shrimp and the amino acid sequence of arginine kinase. Specifically, the library of overlapping peptides was prepared on the basis of the amino acid sequences of SEQ ID NOs: 117, 141, 146, 2, 45, 87, 276, 161, 230, 179, 362, 381, 399, 421, 455, 481, 486, 520, 541, 300 and 306, and arginine kinase.
The peptides to be synthesized were shifted by 10 amino acids.
For preparation of peptide arrays, the Intavis CelluSpots™ technique was used. Specifically, the peptide arrays were prepared by the following procedure: (1) synthesizing peptides of interest on amino-modified cellulose disks using an automated chemical synthesis apparatus (Intavis MultiPep RS), (2) dissolving the amino-modified cellulose disks to obtain a cellulose-bound peptide solution, and (3) spotting the cellulose-bound peptides onto coated glass slides. The details of each procedure are as described below.
Peptide synthesis was carried out in incremental steps through 9-fluorenylmethoxycarbonyl (Fmoc) chemical reaction on amino-modified cellulose disks in 384-well synthesis plates. Specifically, amino acids in which a Fmoc group is bonded to an amino group were activated in a solution of N,N′-diisopropylcarbodiimide (DIC) and 1-hydroxybenzotriazole (HOBt) in dimethylformamide (DMF) and added dropwise to the cellulose disks so that the Fmoc group-bound amino acids were bound to the amino groups on the cellulose disks (coupling). Unreacted amino groups were capped with acetic anhydride and washed with DMF. Furthermore, the Fmoc groups were eliminated from the amino groups of the amino acids bound to the amino groups on the cellulose disks by treatment with piperidine and washing with DMF. The amino acids bound to the amino groups on the cellulose disks were repetitively subjected to the coupling, the capping, and the Fmoc group elimination described above to elongate the amino terminus for peptide synthesis.
The peptides-bound cellulose disks of interest obtained above in the subsection titled “(1) Synthesis of peptide” were transferred to 96-well plates and treated with a side chain deprotection mixed solution of trifluoroacetic acid (TFA), dichloromethane, triisopropylsilane (TIPS), and water for deprotection of amino acid side chains. Then, the deprotected cellulose-bound peptides were dissolved in a mixed solution of TFA, trifluoromethanesulfonic acid (TFMSA), TIPS, and water and precipitated in tetrabutyl methyl ether (TBME), and the precipitate was resuspended in dimethyl sulfoxide (DMSO) and mixed with a mixed solution of NaCl, sodium citrate, and water to obtain a peptide solution for slide spotting.
The peptide solution for slide spotting obtained above in the subsection titled “(2) Dissolution of amino-modified cellulose disk” was spotted onto Intavis CelluSpots™ slides using Intavis Slide Spotting Robot, and the slides were dried to prepare peptide arrays.
The presence or absence of binding, to each peptide fragment, of an IgE antibody present in the serum of a shrimp-allergic patient was measured through antigen-antibody reaction using the peptide arrays. […]

Substance	Peptide bound to an IgE antibody in serum in a patient-specific manner
E29: common 15-residue IgE-binding epitope sequence of polypeptide (E29), myosin heavy chain type 1-derived (QRYNILAAKEMLEAK; VAR_SEQ 1..15 epitope) [Epitope E29]	bound to an IgE antibody in serum in a patient-specific manner
E30: common 15-residue IgE-binding epitope sequence of polypeptide (E30), myosin heavy chain type 1-derived (MLEAKDDKKAATACF; VAR_SEQ 1..15 epitope) [Epitope E30]	bound to an IgE antibody in serum in a patient-specific manner
E38: common 15-residue IgE-binding epitope sequence of polypeptide (E38), myosin heavy chain type 1-derived (LDKELYRCGKTKVFF; VAR_SEQ 1..15 epitope) [Epitope E38]	bound to an IgE antibody in serum in a patient-specific manner
E32: common 15-residue IgE-binding epitope sequence of polypeptide (E32), myosin heavy chain type 1-derived (INELEIALDHANKAN; VAR_SEQ 1..15 epitope) [Epitope E32]	bound to an IgE antibody in serum in a patient-specific manner
E19: common 15-residue IgE-binding epitope sequence of polypeptide (E19), mitochondrial ATP synthase subunit alpha precursor-derived (VLSIGDGIARVYGLK; VAR_SEQ 1..15 epitope) [Epitope E19]	bound to an IgE antibody in serum in a patient-specific manner
E8: common 15-residue IgE-binding epitope sequence of polypeptide (E8), myosin heavy chain type 2-derived (LEEADNQINQLNNLK; VAR_SEQ 1..15 epitope) [Epitope E8]	bound to an IgE antibody in serum in a patient-specific manner
E10: common 15-residue IgE-binding epitope sequence of polypeptide (E10), myosin heavy chain type 2-derived (HFRIKAVYEENLEHL; VAR_SEQ 1..15 epitope) [Epitope E10]	bound to an IgE antibody in serum in a patient-specific manner
E36: common 15-residue IgE-binding epitope sequence of polypeptide (E36), myosin heavy chain type 1-derived (GNMKFKQRGREEQAE; VAR_SEQ 1..15 epitope) [Epitope E36]	bound to an IgE antibody in serum in a patient-specific manner
E17: common 15-residue IgE-binding epitope sequence of polypeptide (E17), pyruvate kinase 3-derived (PGNRIFVDDGLISLI; VAR_SEQ 1..15 epitope) [Epitope E17]	bound to an IgE antibody in serum in a patient-specific manner
E12: common 15-residue IgE-binding epitope sequence of polypeptide (E12), glycogen phosphorylase-derived (LPEALERWPTSMLEH; VAR_SEQ 1..15 epitope) [Epitope E12]	bound to an IgE antibody in serum in a patient-specific manner
E7: common 15-residue IgE-binding epitope sequence of polypeptide (E7), myosin heavy chain type 2-derived (AKSAMDSLARDKALA; VAR_SEQ 1..15 epitope) [Epitope E7]	bound to an IgE antibody in serum in a patient-specific manner
E49: common 15-residue IgE-binding epitope sequence of polypeptide (E49), troponin I-derived (RKKKLRLLLRKKAAE; VAR_SEQ 1..15 epitope) [Epitope E49]	bound to an IgE antibody in serum in a patient-specific manner
E25: common 15-residue IgE-binding epitope sequence of polypeptide (E25), arginine kinase-derived (VNVDPEGKFVISTRV; VAR_SEQ 1..15 epitope) [Epitope E25]	bound to an IgE antibody in serum in a patient-specific manner
E50: common 15-residue IgE-binding epitope sequence of polypeptide (E50), cyclophilin A-derived (AADNQPVGRIVMELR; VAR_SEQ 1..15 epitope) [Epitope E50]	bound to an IgE antibody in serum in a patient-specific manner
E34: common 15-residue IgE-binding epitope sequence of polypeptide (E34), myosin heavy chain type 1-derived (VQVNPPKYEKCEDVS; VAR_SEQ 1..15 epitope) [Epitope E34]	bound to an IgE antibody in serum in a patient-specific manner
E48: common 15-residue IgE-binding epitope sequence of polypeptide (E48), troponin I-derived (EEIDRKKAEVRKRLE; VAR_SEQ 1..15 epitope) [Epitope E48]	bound to an IgE antibody in serum in a patient-specific manner
E33: common 15-residue IgE-binding epitope sequence of polypeptide (E33), myosin heavy chain type 1-derived (TKPYDPKKSCWVPDD; VAR_SEQ 1..15 epitope) [Epitope E33]	bound to an IgE antibody in serum in a patient-specific manner
E44: common 15-residue IgE-binding epitope sequence of polypeptide (E44), hemocyanin subunit L1-derived (VRIFAWPHLDNNGIK; VAR_SEQ 1..15 epitope) [Epitope E44]	bound to an IgE antibody in serum in a patient-specific manner
E5: common 15-residue IgE-binding epitope sequence of polypeptide (E5), myosin heavy chain type 2-derived (GTMEELRDERLAKII; VAR_SEQ 1..15 epitope) [Epitope E5]	bound to an IgE antibody in serum in a patient-specific manner
E16: common 15-residue IgE-binding epitope sequence of polypeptide (E16), pyruvate kinase 3-derived (NVRKAAQKYSDKIGH; VAR_SEQ 1..15 epitope) [Epitope E16]	bound to an IgE antibody in serum in a patient-specific manner
E6: common 15-residue IgE-binding epitope sequence of polypeptide (E6), myosin heavy chain type 2-derived (KDHQIRNINDEISHQ; VAR_SEQ 1..15 epitope) [Epitope E6]	bound to an IgE antibody in serum in a patient-specific manner
E15: common 15-residue IgE-binding epitope sequence of polypeptide (E15), hemocyanin subunit L1-derived (LIPKGNEQGLEFDLV; VAR_SEQ 1..15 epitope) [Epitope E15]	bound to an IgE antibody in serum in a patient-specific manner
E41: common 15-residue IgE-binding epitope sequence of polypeptide (E41), myosin heavy chain type 1-derived (MTQETVADIERQHKD; VAR_SEQ 1..15 epitope) [Epitope E41]	bound to an IgE antibody in serum in a patient-specific manner
E11: common 15-residue IgE-binding epitope sequence of polypeptide (E11), myosin heavy chain type 2-derived (RSLHEIEKNAKRFEI; VAR_SEQ 1..15 epitope) [Epitope E11]	bound to an IgE antibody in serum in a patient-specific manner
